The values that follow come from patent publication US10392428B2, “GLP-1 derivatives and uses thereof” (Novo Nordisk A/S, priority 2014, dated 2019).

Where two headings read alike, the source gives them in different places.

Series [1] in a line: Pharmacokinetic study in minipigs (i.v.). The settings on record: male, Göttingen, minipig, in vivo, iv, minipigs, i.v., harmonic mean, read-out: Terminal half-live (converted). How it is done:
The derivatives of Examples 12, 14, and 15 were dosed 2 nmol/kg. The derivatives of Examples 1 and 2 were dosed 15 nmol/kg.

In series [2] the target is T1, human GLP-1 receptor (Homo sapiens, UniProt P43220).
T1 construct: expressed in transfected cells; host or cells: membrane preparation from BHK cells, clone FCW467-12A (parent line BHKTS13)
T1 sequence (P43220 24-463): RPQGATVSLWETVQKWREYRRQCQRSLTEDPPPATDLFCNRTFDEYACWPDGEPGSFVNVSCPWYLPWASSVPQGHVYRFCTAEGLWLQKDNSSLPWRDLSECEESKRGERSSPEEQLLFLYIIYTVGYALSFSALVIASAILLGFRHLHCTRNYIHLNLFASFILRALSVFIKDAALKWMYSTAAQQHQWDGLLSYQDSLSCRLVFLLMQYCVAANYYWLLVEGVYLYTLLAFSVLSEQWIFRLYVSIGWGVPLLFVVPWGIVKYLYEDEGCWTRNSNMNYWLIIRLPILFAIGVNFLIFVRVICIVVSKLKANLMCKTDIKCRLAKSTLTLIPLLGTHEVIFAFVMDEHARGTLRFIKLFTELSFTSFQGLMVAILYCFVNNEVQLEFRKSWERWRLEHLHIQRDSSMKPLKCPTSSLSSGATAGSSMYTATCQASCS
The series can be described thus: GLP-1 receptor binding: competitive binding assay (125I-GLP-1, SPA) on isolated membranes at low and high HSA. The conditions noted are these: High HSA IC50 (nM), high HSA (2.0% final assay concentration).
Experimental: The purpose of this example is to test the receptor binding of the GLP-1 derivatives in vitro. The receptor binding is a measure of affinity of a derivative for the human GLP-1 receptor.
Each derivative is added in a series of concentrations to isolated membranes containing the human GLP-1 receptor and displacement of the labelled ligand is monitored. The receptor binding is reported as the concentration at which half of the labelled ligand is displaced from the receptor, the IC50 value.
Buffer 1 consisted of 20 mM Na-HEPES plus 10 mM EDTA and pH was adjusted to 7.4. Buffer 2 consisted of 20 mM Na-HEPES plus 0.1 mM EDTA and pH was adjusted to 7.4. Assay buffer consisted of 50 mM HEPES supplemented with 5 mM EGTA, 5 mM MgCl2, 0.005% Tween 20 and pH was adjusted to 7.4. An 8% albumin stock consisted of HSA dissolved at 8% (w/v) in assay buffer. An 0.02% albumin stock consisted of HSA dissolved at 0.02% (w/v) in assay buffer.
The cells express the human GLP-1 receptor.
The cells were grown at 5% CO2 in DMEM, 10% fetal calf serum, 1% Pen/Strep (Penicillin/Streptomycin) and 1.0 mg/ml of the selection marker G418.
To make a membrane preparation the cells were grown to approximately 80% confluence. The cells were washed twice in phosphate-buffered saline and harvested. The cells were pelleted using a brief centrifugation and the cell pellet was kept on ice. […] The homogenate was centrifuged for 15 minutes. The pellet was re-suspended (homogenised) in 10 ml buffer 2 and centrifuged. This step was repeated once more. The resulting pellet was re-suspended in buffer 2 and the protein concentration was determined. The membranes were aliquoted and stored at minus 80° C.
For the receptor binding assay in the presence of low HSA (0.005%) 50 μl of the assay buffer was added to each well of an assay plate.
For the receptor binding assay in the presence of high HSA (2%) 50 μl of the 8% albumin stock was added to each well of an assay plate.
Cell membrane aliquots were thawed and diluted to their working concentration. Fifty μl were added to each well in the assay plate.
WGA SPA beads were suspended in assay buffer at 20 mg/ml. The suspension was diluted to 10 mg/ml in assay buffer just prior to addition to the assay plate. Fifty μl were added to each well in the assay plate.
A 25 μl aliquot was reserved for measuring total counts/well.
The assay plate was incubated for 2 h at 30° C.
The assay plate was centrifuged for 10 min.
The assay plate was read in a Packard TopCount NXT instrument.
The data from the TopCount instrument were transferred to Graph Pad Prism software. Individual replicates were analysed using non-linear regression. IC50 values were calculated by the software and reported in nM. The reported values are averages of all of the measured values for each compound.

With `CC[C@H](C)[C@H](NC(=O)[C@H](Cc1ccccc1)NC(=O)[C@H](CCC(=O)O)NC(=O)[C@H](CCCNC(=N)N)NC(=O)[C@H](C)NC(=O)[C@H](C)NC(=O)[C@H](CCC(N)=O)NC(=O)[C@H](CCC(=O)O)NC(=O)[C@H](CCC(=O)O)NC(=O)[C@H](CC(C)C)NC(=O)[C@H](Cc1ccc(O)cc1)NC(=O)[C@H](CO)NC(=O)[C@H](CO)NC(=O)[C@@H](NC(=O)[C@H](CC(=O)O)NC(=O)[C@H](CO)NC(=O)[C@@H](NC(=O)[C@H](Cc1ccccc1)NC(=O)[C@@H](NC(=O)CNC(=O)[C@H](CCC(=O)O)NC(=O)C(C)(C)NC(=O)[C@@H](N)Cc1c[nH]cn1)[C@@H](C)O)[C@@H](C)O)C(C)C)C(=O)N[C@@H](C)C(=O)N[C@@H](Cc1c[nH]c2ccccc12)C(=O)N[C@@H](CC(C)C)C(=O)N[C@H](C(=O)N[C@@H](CCCNC(=N)N)C(=O)NCC(=O)N[C@@H](CCCNC(=N)N)C(=O)N[C@@H](CCCCNC(=O)COCCOCCNC(=O)COCCOCCNC(=O)COCCOCCNC(=O)COCCOCCNC(=O)[C@H](CCCCNC(=O)CC[C@H](NC(=O)[C@H]1CC[C@H](CNC(=O)CCCCCCCCCCCCCCCCCCC(=O)O)CC1)C(=O)O)NC(=O)CC[C@H](NC(=O)[C@H]1CC[C@H](CNC(=O)CCCCCCCCCCCCCCCCCCC(=O)O)CC1)C(=O)O)C(=O)O)C(C)C` [Example 8, N{Epsilon-37}-[2-[2-[2-[[2-[2-[2-[[2-[2-[2-[[2-[2-[2-[[(2S)-2,6-bis[[(4S)-4-carboxy-4-[[4-[(19-carboxynonadecanoylamino)methyl]cyclohexanecarbonyl]amino]butanoyl]amino]hexanoyl]amino]ethoxy]ethoxy]acetyl]amino]ethoxy]ethoxy]acetyl]amino]ethoxy]ethoxy]acetyl]amino]ethoxy]ethoxy]acetyl]-[Aib8,Glu22,Arg26,Arg34,Lys37]-GLP-1-(7-37)-peptide], in series [1] (5 nmol/kg), the half-life was 145 h. `CC[C@H](C)[C@H](NC(=O)[C@H](Cc1ccccc1)NC(=O)[C@H](CCC(=O)O)NC(=O)[C@H](CCCNC(=N)N)NC(=O)[C@H](C)NC(=O)[C@H](C)NC(=O)[C@H](CCC(N)=O)NC(=O)[C@H](CCC(=O)O)NC(=O)[C@H](CCC(=O)O)NC(=O)[C@H](CC(C)C)NC(=O)[C@H](Cc1ccc(O)cc1)NC(=O)[C@H](CO)NC(=O)[C@H](CO)NC(=O)[C@@H](NC(=O)[C@H](CC(=O)O)NC(=O)[C@H](CO)NC(=O)[C@@H](NC(=O)[C@H](Cc1ccccc1)NC(=O)[C@@H](NC(=O)CNC(=O)[C@H](CCC(=O)O)NC(=O)C(C)(C)NC(=O)[C@@H](N)Cc1c[nH]cn1)[C@@H](C)O)[C@@H](C)O)C(C)C)C(=O)N[C@@H](C)C(=O)N[C@@H](Cc1c[nH]c2ccccc12)C(=O)N[C@@H](CC(C)C)C(=O)N[C@H](C(=O)N[C@@H](CCCNC(=N)N)C(=O)NCC(=O)N[C@@H](CCCNC(=N)N)C(=O)N[C@@H](CCCCNC(=O)[C@@H](N)CCCCNC(=O)[C@@H](N)CCCCNC(=O)[C@H](CCCCNC(=O)CC[C@H](NC(=O)[C@H]1CC[C@H](CNC(=O)CCCCCCCCCCCCCCCCCCC(=O)O)CC1)C(=O)O)NC(=O)CC[C@H](NC(=O)[C@H]1CC[C@H](CNC(=O)CCCCCCCCCCCCCCCCCCC(=O)O)CC1)C(=O)O)C(=O)O)C(C)C` [Example 9, N{Epsilon-37}-[(2S)-2-amino-6-[[(2S)-2-amino-6-[[(2S)-2,6-bis[[(4S)-4-carboxy-4-[[4-[(19-carboxynonadecanoylamino)methyl]cyclohexanecarbonyl]amino]butanoyl]amino]hexanoyl]amino]hexanoyl]amino]hexanoyl]-[Aib8,Glu22,Arg26,Arg34,Lys37]-GLP-1-(7-37)-peptide] gave an IC50 in series [2] of 150 nM. `CC[C@H](C)[C@H](NC(=O)[C@H](Cc1ccccc1)NC(=O)[C@H](CCC(=O)O)NC(=O)[C@H](CCCNC(=N)N)NC(=O)[C@H](C)NC(=O)[C@H](C)NC(=O)[C@H](CCC(N)=O)NC(=O)[C@H](CCC(=O)O)NC(=O)[C@H](CCC(=O)O)NC(=O)[C@H](CC(C)C)NC(=O)[C@H](Cc1ccc(O)cc1)NC(=O)[C@H](CO)NC(=O)[C@H](CO)NC(=O)[C@@H](NC(=O)[C@H](CC(=O)O)NC(=O)[C@H](CO)NC(=O)[C@@H](NC(=O)[C@H](Cc1ccccc1)NC(=O)[C@@H](NC(=O)CNC(=O)[C@H](CCC(=O)O)NC(=O)C(C)(C)NC(=O)[C@@H](N)Cc1c[nH]cn1)[C@@H](C)O)[C@@H](C)O)C(C)C)C(=O)N[C@@H](C)C(=O)N[C@@H](Cc1c[nH]c2ccccc12)C(=O)N[C@@H](CC(C)C)C(=O)N[C@H](C(=O)N[C@@H](CCCNC(=N)N)C(=O)NCC(=O)N[C@@H](CCCNC(=N)N)C(=O)N[C@@H](CCCCNC(=O)COCCOCCNC(=O)COCCOCCNC(=O)COCCOCCNC(=O)COCCOCCNC(=O)COCCOCCNC(=O)COCCOCCNC(=O)[C@H](CCCCNC(=O)CC[C@H](NC(=O)[C@H]1CC[C@H](CNC(=O)CCCCCCCCCCCCCCCCCCC(=O)O)CC1)C(=O)O)NC(=O)CC[C@H](NC(=O)[C@H]1CC[C@H](CNC(=O)CCCCCCCCCCCCCCCCCCC(=O)O)CC1)C(=O)O)C(=O)O)C(C)C` [Example 12]: the half-life in series [1] (2 nmol/kg) was 142 h. Consider `CC[C@H](C)[C@H](NC(=O)[C@H](Cc1ccccc1)NC(=O)[C@H](CCC(=O)O)NC(=O)[C@H](CCCNC(=N)N)NC(=O)[C@H](C)NC(=O)[C@H](C)NC(=O)[C@H](CCC(N)=O)NC(=O)[C@H](CCC(=O)O)NC(=O)[C@H](CCC(=O)O)NC(=O)[C@H](CC(C)C)NC(=O)[C@H](Cc1ccc(O)cc1)NC(=O)[C@H](CO)NC(=O)[C@H](CO)NC(=O)[C@@H](NC(=O)[C@H](CC(=O)O)NC(=O)[C@H](CO)NC(=O)[C@@H](NC(=O)[C@H](Cc1ccccc1)NC(=O)[C@@H](NC(=O)CNC(=O)[C@H](CCC(=O)O)NC(=O)C(C)(C)NC(=O)[C@@H](N)Cc1c[nH]cn1)[C@@H](C)O)[C@@H](C)O)C(C)C)C(=O)N[C@@H](C)C(=O)N[C@@H](Cc1c[nH]c2ccccc12)C(=O)N[C@@H](CC(C)C)C(=O)N[C@H](C(=O)N[C@@H](CCCNC(=N)N)C(=O)NCC(=O)N[C@@H](CCCNC(=N)N)C(=O)N[C@@H](CCCCNC(=O)COCCOCCNC(=O)COCCOCCNC(=O)COCCOCCNC(=O)COCCOCCNC(=O)COCCOCCNC(=O)COCCOCCNC(=O)COCCOCCNC(=O)COCCOCCNC(=O)[C@H](CCCCNC(=O)CC[C@H](NC(=O)[C@H]1CC[C@H](CNC(=O)CCCCCCCCCCCCCCCCCCC(=O)O)CC1)C(=O)O)NC(=O)CC[C@H](NC(=O)[C@H]1CC[C@H](CNC(=O)CCCCCCCCCCCCCCCCCCC(=O)O)CC1)C(=O)O)C(=O)O)C(C)C` [Example 13], for which the half-life in series [1] (5 nmol/kg) is 119 h. For `CC[C@H](C)[C@H](NC(=O)[C@H](Cc1ccccc1)NC(=O)[C@H](CCC(=O)O)NC(=O)[C@H](CCCNC(=N)N)NC(=O)[C@H](C)NC(=O)[C@H](C)NC(=O)[C@H](CCC(N)=O)NC(=O)[C@H](CCC(=O)O)NC(=O)[C@H](CCC(=O)O)NC(=O)[C@H](CC(C)C)NC(=O)[C@H](Cc1ccc(O)cc1)NC(=O)[C@H](CO)NC(=O)[C@H](CO)NC(=O)[C@@H](NC(=O)[C@H](CC(=O)O)NC(=O)[C@H](CO)NC(=O)[C@@H](NC(=O)[C@H](Cc1ccccc1)NC(=O)[C@@H](NC(=O)CNC(=O)[C@H](CCC(=O)O)NC(=O)C(C)(C)NC(=O)[C@@H](N)Cc1c[nH]cn1)[C@@H](C)O)[C@@H](C)O)C(C)C)C(=O)N[C@@H](C)C(=O)N[C@@H](Cc1c[nH]c2ccccc12)C(=O)N[C@@H](CC(C)C)C(=O)N[C@H](C(=O)N[C@@H](CCCNC(=N)N)C(=O)NCC(=O)N[C@@H](CCCNC(=N)N)C(=O)N[C@@H](CCCCNC(=O)COCCOCCNC(=O)COCCOCCNC(=O)[C@H](CCCCNC(=O)COCCOCCNC(=O)COCCOCCNC(=O)COCCOCCNC(=O)COCCOCCNC(=O)CC[C@H](NC(=O)[C@H]1CC[C@H](CNC(=O)CCCCCCCCCCCCCCCCCCC(=O)O)CC1)C(=O)O)NC(=O)COCCOCCNC(=O)COCCOCCNC(=O)COCCOCCNC(=O)COCCOCCNC(=O)CC[C@H](NC(=O)[C@H]1CC[C@H](CNC(=O)CCCCCCCCCCCCCCCCCCC(=O)O)CC1)C(=O)O)C(=O)O)C(C)C` [Example 14], the half-life in series [1] (2 nmol/kg) is 135 h. Same read-out and setting: the result for `CC[C@H](C)[C@H](NC(=O)[C@H](Cc1ccccc1)NC(=O)[C@H](CCC(=O)O)NC(=O)[C@H](CCCNC(=N)N)NC(=O)[C@H](C)NC(=O)[C@H](C)NC(=O)[C@H](CCC(N)=O)NC(=O)[C@H](CCC(=O)O)NC(=O)[C@H](CCC(=O)O)NC(=O)[C@H](CC(C)C)NC(=O)[C@H](Cc1ccc(O)cc1)NC(=O)[C@H](CO)NC(=O)[C@H](CO)NC(=O)[C@@H](NC(=O)[C@H](CC(=O)O)NC(=O)[C@H](CO)NC(=O)[C@@H](NC(=O)[C@H](Cc1ccccc1)NC(=O)[C@@H](NC(=O)CNC(=O)[C@H](CCC(=O)O)NC(=O)C(C)(C)NC(=O)[C@@H](N)Cc1c[nH]cn1)[C@@H](C)O)[C@@H](C)O)C(C)C)C(=O)N[C@@H](C)C(=O)N[C@@H](Cc1c[nH]c2ccccc12)C(=O)N[C@@H](CC(C)C)C(=O)N[C@H](C(=O)N[C@@H](CCCNC(=N)N)C(=O)NCC(=O)N[C@@H](CCCNC(=N)N)C(=O)N[C@@H](CCCCNC(=O)COCCOCCNC(=O)COCCOCCNC(=O)COCCOCCNC(=O)COCCOCCNC(=O)[C@H](CCCCNC(=O)COCCOCCNC(=O)COCCOCCNC(=O)CC[C@H](NC(=O)[C@H]1CC[C@H](CNC(=O)CCCCCCCCCCCCCCCCCCC(=O)O)CC1)C(=O)O)NC(=O)COCCOCCNC(=O)COCCOCCNC(=O)CC[C@H](NC(=O)[C@H]1CC[C@H](CNC(=O)CCCCCCCCCCCCCCCCCCC(=O)O)CC1)C(=O)O)C(=O)O)C(C)C` [Example 15] reads 142 h.

In general, IC50 refers to the midpoint of a concentration-inhibition curve.
